{"source": "patent US11007269B2", "about": "“P53 degradation inducing molecule and pharmaceutical composition” (Tokyo University of Science Foundation, priority 2016, dated 2021)", "molecular_target": "endogenous wild-type p53 protein (Homo sapiens, UniProt P04637)", "sequence (P04637 whole entry)": "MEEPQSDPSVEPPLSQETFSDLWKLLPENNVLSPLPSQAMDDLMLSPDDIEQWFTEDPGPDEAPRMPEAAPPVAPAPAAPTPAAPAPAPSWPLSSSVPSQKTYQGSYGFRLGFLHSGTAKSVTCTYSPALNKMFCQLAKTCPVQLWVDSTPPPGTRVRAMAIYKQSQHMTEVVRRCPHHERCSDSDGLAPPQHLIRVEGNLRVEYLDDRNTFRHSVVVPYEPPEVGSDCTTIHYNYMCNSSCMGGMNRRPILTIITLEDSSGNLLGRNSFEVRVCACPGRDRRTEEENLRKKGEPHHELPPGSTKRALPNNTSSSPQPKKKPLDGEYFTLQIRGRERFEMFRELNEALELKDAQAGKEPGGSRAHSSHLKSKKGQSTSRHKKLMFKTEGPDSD", "test": "Western blot of endogenous wild-type p53 protein degradation in HeLa cells, with rescue by proteasome inhibitor", "assay_type": "cell-based", "set-up": "endogenous in cells", "description": "In Example 3, degradation (knockdown) of an endogenous wild-type p53 protein in HeLa cells (human cervical cancer cells) to which TIBC-CANDDY_MLN has been added was evaluated by Western blot analysis. At the same time, a rescue of degradation of the p53 protein by a proteasome inhibitor (MLN2238) was evaluated.\nHeLa cells were seeded in a 24-well plate at a cell density of 4×10^4 cells/well, and then cultured under conditions of 37° C. and 5 vol % CO2 for 16 hours.\nAfter 16 hours from cell seeding, TIBC-CANDDY_MLN was added to HeLa cells as follows. As a medium, a serum-free medium (37° C.) in which 1 mass % L-glutamine solution (Sigma-Aldrich) was added to D-MEM (high D-glucose, phenol red, sodium pyruvate (Wako Pure Chemical Industries, Ltd.)) was used. It is noted that the L-glutamine solution was added immediately before use. A DMSO solution containing TIBC-CANDDY_MLN was mixed with the medium so that the concentration of DMSO was 1 vol %, and added to each well at 500 μL/well, and cultured under conditions of 37° C. and 5 vol % CO2. As a control, DMSO was used. Furthermore, in addition to an experiment group in which a DMSO solution containing TIBC-CANDDY_MLN had been added, an experiment group in which a DMSO solution containing both TIBC-CANDDY_MLN and MLN2238, or MLN2238 had been added was prepared. […]"}
{"molecule": "CC(C)C[C@H](NC(=O)CNC(=O)c1cc(Cl)ccc1Cl)C(=O)NCCCCCCC(=O)Nc1ccc(C(=O)/C=C/c2ccc(I)cc2)cc1", "note": "[TIBC-CANDDY_MLN]", "values": [{"measurement": "amount of the endogenous wild-type p53 protein (Western blot)", "setting": "24 hours after addition, vs DMSO control", "value": "reduced"}, {"measurement": "amount of the wild-type p53 protein when proteasome inhibitor MLN2238 is added as well (rescue)", "setting": "24 hours, both TIBC-CANDDY_MLN and MLN2238 added", "value": "increased as compared with the control (DMSO)"}]}
